In patent US11384078B2, “5,6-fused-bicyclic compounds and compositions for the treatment of parasitic diseases” (NOVARTIS AG, priority 2017, dated 2022):

Assays:
Type in all cases: cell-based
[1] = system: Leishmania donovani axenic amastigote; assay: In vitro assay for growth inhibition of Leishmania donovani axenic amastigote (Cell TiterGlo luminescence); conditions: Leishmania donovani, L. donovani axenic amastigotes in vitro; read-out: L. donovani amastigotes EC50
Outline: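 Axenic L. donovani amastigotes (9600/well) grown at 37 °C, 5% CO2 in supplemented RPMI 1640, pH 5.5, with compound added from DMSO. After two days, viability read by CellTiter-Glo luminescence against DMSO and control-compound wells.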

[2] = system: Trypanosoma brucei brucei (Lister 427) strain; assay: Assay for growth inhibition against Trypanosoma brucei brucei (Cell TiterGlo ATP luminescence); conditions: Trypanosoma brucei, T. brucei brucei (Lister 427); read-out: T. Brucei (HAT) EC50
Procedure: Assay for Growth Inhibition Against Trypanosoma brucei brucei
The proliferation is quantified by the addition of Cell TiterGlo® (Promega®) a luminescent cell viability assay that measures the number of viable cells in culture based on the quantification of cellular ATP amount, which is an indicator of metabolically active cells.
Trypanosoma brucei brucei (Lister 427) strain was grown in Hirumi 9 (HMI-9) media supplemented with 10% v/v fetal bovine serum (FBS) and 10% v/v serum plus. For measurement of cell proliferation inhibition, test compounds were three fold serially diluted in duplicates to 384-well white plates, resulting in 10 dilutions for each compound. A volume of 40 μL of T. b. brucei culture (10,000 parasites/mL) was added to each well, and the assay plates were incubated at 37° C. for 2 days in a CO2 incubator. Growth inhibition was monitored by measuring ATP levels, which, is used as a surrogate marker for growth. Relative luminescence units were measured using TECAN® M1000 after 30 min of adding 40 μl of Cell TiterGlo®. IC50 values were determined by analyzing the data using HELIOS software. IC50 is defined as the lowest concentration of the compound that inhibited 50% growth of the T. b. brucei wild type strain compared to untreated controls.

[3] = system: Trypanosoma cruzi amastigotes cultured in 3T3 fibroblast cells; assay: Assay for growth inhibition of kinetoplastid parasite Trypanosoma cruzi (beta-galactosidase Tulahuen strain, CPRG readout); conditions: Trypanosoma cruzi, Fibroblast, T. cruzi amastigotes in 3T3 fibroblast cells; read-out: Buckner infectious T. cruzi EC50
Outline: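 3T3 fibroblasts (1,000 cells/well) plated overnight, treated with compound in DMSO, then infected with 10,000 Lac-Z-expressing Tulahuen trypomastigotes. After 6 days, 0.6 mM CPRG with 0.6% NP-40 added for 2 h at room temperature; absorbance gives relative intracellular amastigote numbers. Benznidazole and nifurtimox serve as positive controls.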

SMILES	EC50 [1]	EC50 [2]	EC50 [3]
O=C(Nc1ccc(F)c(-n2cc3cc(N4CCS(=O)(=O)CC4)cnc3n2)c1)N1CC(F)C1 [Compound 178, N-{3-[5-(1,1-dioxo-1$|^6,4-thiomorpholin-4-yl)-2H-pyrazolo[3,4-b]pyridin-2-yl]-4-fluorophenyl}-3-fluoroazetidine-1-carboxamide]	160 nM	36 nM	1600 nM
CN1CCN(c2cnc3nn(-c4cc(NC(=O)N5CC(F)C5)ccc4F)cc3c2)CC1 [Compound 179, 3-fluoro-N-{4-fluoro-3-[5-(4-methylpiperazin-1-yl)-2H-pyrazolo[3,4-b]pyridin-2-yl]phenyl}azetidine-1-carboxamide]	410 nM	< 23 nM	43 nM
O=C(Nc1ccc(F)c(-n2cc3cc(N4CCn5ccnc5C4)cnc3n2)c1)N1CC(F)C1 [Compound 180, 3-fluoro-N-[4-fluoro-3-(5-{5H,6H,7H,8H-imidazo[1,2-a]pyrazin-7-yl}-2H-pyrazolo[3,4-b]pyridin-2-yl)phenyl}azetidine-1-carboxamide]	550 nM	38 nM	3900 nM
O=C(Nc1ccc(F)c(-n2cc3cc(N4CC(O)C4)cnc3n2)c1)N1CC(F)C1 [Compound 181, 3-fluoro-N-{4-fluoro-3-[5-(3-hydroxyazetidin-1-yl)-2H-pyrazolo[3,4-b]pyridin-2-yl]phenyl}azetidine-1-carboxamide]	25 nM	< 23 nM	820 nM
O=C(Nc1ccc(F)c(-n2cc3cc(-c4ccncc4)cnc3n2)c1)N1CC(F)C1 [Compound 182, 3-fluoro-N-(4-fluoro-3-(5-(pyridin-4-yl)-2H-pyrazolo[3,4-b]pyridin-2-yl)phenyl)azetidine-1-carboxamide]	7.6 nM	< 23 nM	6.7 nM
O=C(Nc1ccc(F)c(-n2cc3cc(N4CCC5(COC5)C4)cnc3n2)c1)N1CC(F)C1 [Compound 183, 3-fluoro-N-[4-fluoro-3-(5-{2-oxa-6-azaspiro[3.4]octan-6-yl}-2H-pyrazolo[3,4-b]pyridin-2-yl)phenyl}azetidine-1-carboxamide]	12 nM	< 23 nM	55 nM
[2H]C([2H])([2H])N(C(=O)Nc1ccc(F)c(-n2cc3cc(C(C)C)cnc3n2)c1)C([2H])([2H])[2H] [Compound 219, 1-{4-fluoro-3-[5-(propan-2-yl)-2H-pyrazolo[3,4-b]pyridin-2-yl]phenyl}-3,3-bis(^2H3)methylurea]	34 nM	17 nM	15 nM
CC(C)c1cnc2nn(-c3cc(NC(=O)N4CCC5(CC5)C4)ccc3F)cc2c1 [Compound 220, N-{4-fluoro-3-[5-(propan-2-yl)-2H-pyrazolo[3,4-b]pyridin-2-yl]phenyl}-5-azaspiro[2.4]heptane-5-carboxamide]	15 nM	42 nM	6 nM
CC(C)c1cnc2nn(-c3cc(NC(=O)N4CC[C@@H](C)C4)ccc3F)cc2c1 [Compound 221, (3R)-N-{4-fluoro-3-[5-(propan-2-yl)-2H-pyrazolo[3,4-b]pyridin-2-yl]phenyl}-3-methylpyrrolidine-1-carboxamide]	3 nM	9 nM	1 nM
CC(C)c1cnc2nn(-c3cc(NC(=O)N4CC5(CC5)C4)ccc3F)cc2c1 [Compound 222, N-{4-fluoro-3-[5-(propan-2-yl)-2H-pyrazolo[3,4-b]pyridin-2-yl]phenyl}-5-azaspiro[2.3]hexane-5-carboxamide]	80 nM	73 nM	45 nM
CC(C)c1cnc2nn(-c3cc(NC(=O)N4C[C@H]5C[C@H]5C4)ccc3F)cc2c1 [Compound 223, (1R,5S)-N-{4-fluoro-3-[5-(propan-2-yl)-2H-pyrazolo[3,4-b]pyridin-2-yl]phenyl}-3-azabicyclo[3.1.0]hexane-3-carboxamide]	82 nM	64 nM	37 nM
CCN(C)C(=O)Nc1ccc(F)c(-n2cc3cc(C(C)C)cnc3n2)c1 [Compound 224, 3-ethyl-1-{4-fluoro-3-[5-(propan-2-yl)-2H-pyrazolo[3,4-b]pyridin-2-yl]phenyl}-3-methylurea]	111 nM	67 nM	46 nM
CO[C@@H]1CCN(C(=O)Nc2ccc(F)c(-n3cc4cc(C(C)C)cnc4n3)c2)C1 [Compound 225, (3R)-N-{4-fluoro-3-[5-(propan-2-yl)-2H-pyrazolo[3,4-b]pyridin-2-yl]phenyl}-3-methoxypyrrolidine-1-carboxamide]	37 nM	238 nM	50 nM
CC(C)c1cnc2nn(-c3cc(NC(=O)N4CC5(CCC5)C4)ccc3F)cc2c1 [Compound 226, N-{4-fluoro-3-[5-(propan-2-yl)-2H-pyrazolo[3,4-b]pyridin-2-yl]phenyl}-2-azaspiro[3.3]heptane-2-carboxamide]	134 nM	343 nM	129 nM
CC(C)c1cnc2nn(-c3cc(NC(=O)N(C)CC(F)(F)F)ccc3F)cc2c1 [Compound 227, 1-{4-fluoro-3-[5-(propan-2-yl)-2H-pyrazolo[3,4-b]pyridin-2-yl]phenyl}-3-methyl-3-(2,2,2-trifluoroethyl)urea]	30 nM	59 nM	11 nM
CC(C)c1cnc2nn(-c3cc(NC(=O)N(C)C)ccc3F)cc2c1 [Compound 228, 1-{4-fluoro-3-[5-(propan-2-yl)-2H-pyrazolo[3,4-b]pyridin-2-yl]phenyl}-3,3-dimethylurea]	31 nM	30 nM	10 nM
CC(C)c1cnc2nn(-c3cc(NC(=O)N4CCN5CCC4CC5)ccc3F)cc2c1 [Compound 229, N-{4-fluoro-3-[5-(propan-2-yl)-2H-pyrazolo[3,4-b]pyridin-2-yl]phenyl}-1,4-diazabicyclo[3.2.2]nonane-4-carboxamide]	25000 nM	12500 nM	15600 nM
CC1(O)CN(c2cnc3nn(-c4cc(NC(=O)N5CC(F)C5)ccc4F)cc3c2)C1 [Compound 251, 3-fluoro-N-{4-fluoro-3-[5-(3-hydroxy-3-methylazetidin-1-yl)-2H-pyrazolo[3,4-b]pyridin-2-yl]phenyl}azetidine-1-carboxamide]	24 nM	5 nM	367 nM
O=C(Nc1ccc(F)c(-n2cc3cc(N4CCN(CC(F)(F)F)CC4)cnc3n2)c1)N1CC(F)(F)C1 [Compound 252, 3,3-difluoro-N-(4-fluoro-3-{5-[4-(2,2,2-trifluoroethyl)piperazin-1-yl]-2H-pyrazolo[3,4-b]pyridin-2-yl}phenyl)azetidine-1-carboxamide]	183 nM	5 nM	22 nM
O=C(Nc1ccc(F)c(-n2cc3cc(N4CCN(CC(F)(F)F)CC4)cnc3n2)c1)N1CC[C@@H](F)C1 [Compound 253, (3R)-3-fluoro-N-(4-fluoro-3-{5-[4-(2,2,2-trifluoroethyl)piperazin-1-yl]-2H-pyrazolo[3,4-b]pyridin-2-yl}phenyl)pyrrolidine-1-carboxamide]	3 nM	5 nM	4 nM
O=C(Nc1ccc(F)c(-n2cc3cc(-n4cccn4)cnc3n2)c1)N1CC(F)C1 [Compound 319, 3-fluoro-N-{4-fluoro-3-[5-(1H-pyrazol-1-yl)-2H-pyrazolo[3,4-b]pyridin-2-yl]phenyl}azetidine-1-carboxamide]	1 nM	5 nM	1 nM
O=C(Nc1ccc(F)c(-n2cc3cc(C(F)(F)F)cnc3n2)c1)N1CCC1 [Compound 320, N-{4-fluoro-3-[5-(trifluoromethyl)-2H-pyrazolo[3,4-b]pyridin-2-yl]phenyl}azetidine-1-carboxamide]	8 nM	5 nM	2 nM
O=C(Nc1ccc(F)c(-n2cc3cc(C(F)(F)F)cnc3n2)c1)N1CC(F)C1 [Compound 321, 3-fluoro-N-{4-fluoro-3-[5-(trifluoromethyl)-2H-pyrazolo[3,4-b]pyridin-2-yl]phenyl}azetidine-1-carboxamide]	18 nM	5 nM	11 nM
O=C(Nc1ccc(F)c(-n2cc3cc(C(F)(F)F)cnc3n2)c1)N1CC[C@@H](F)C1 [Compound 322, (3R)-3-fluoro-N-{4-fluoro-3-[5-(trifluoromethyl)-2H-pyrazolo[3,4-b]pyridin-2-yl]phenyl}pyrrolidine-1-carboxamide]	12 nM	5 nM	3 nM
